Where no end group is shown, it is not given here.
Biological target: peptide HIV-1 gp120
Assay: Affinity HPLC of CD4 peptide on immobilized HIV-1 gp120 peptide
Format: binding
Description: The existence of an interaction ability among complementary peptides was verified by affinity HPLC (G. Fassina and I. M. Chaiken, Advances in Chromatogr. 27:250, 1987).
The peptide HIV-1 gp120 was immobilized on a solid support (Eupergit^R C 30n, 800 µmoles/g load capability by controlled density) according to the conditions reported in literature (G. Fassina et al., J. Chromatogr. 376:87, 1986) and an HPLC glass column (80∗ 6.6 mm ID) was loaded with the peptide derivatized support to prepare an affinity column. The total amount of immobilized peptide in the column is 260 µg, as checked from the amino acid analysis of the support. Small amounts (1-10 µg) of CD4 peptide were eluted isochrathically on the column equilibrated by a flow rate of 1.0 ml/min with 0.1 M NH4Ac, pH 5.7.
The eluted solution was analysed by monitoring the optic absorbance.
The extension of the delay on column, which indicates the interaction between the peptides, was correlated to the dissociation constant Km/p of the binding according to the equation: 1/(V-Vo ) = Km/p /MT +[P]T /MT [formula] where V is the elution volume of the eluted peptide, Vo is void volume of the column, MT is the total immobilized peptide, [P]T is the eluted peptide, and Km/p is the dissociation constant of the binding. […]

GPSKLNDRADS [peptide CD4, NH2-GPSKLNDRADSCOOH]
Kd (immobilized HIV-1 gp120 peptide, 0.1 M NH4Ac, pH 5.7, extrapolation at concentration zero of peptide, read-out: dissociation constant): 80 µM

NH2-APPISGOIRSS-COOH [HIV-1 gp120]
binding in competitive binding assay (1 mM of HIV-1 gp120 added to the buffer): completely inhibited

Reference: patent EP0411503B1, “Process for identifying and synthesizing binding sites of interacting proteins” (priority 1989, dated 1999)
